We go through three molecules from patent publication US20250213606A1, “MEDICINAL AGENT (EMBODIMENTS) AND DEVICE FOR USING SAME” (priority 2022, published 2025).

Data set [1] concerns laboratory animals and volunteer testers. The data set can be described thus: Effective concentration ranges of the components of the mixture. The format is in vivo.
For data set [2] the following is noted: governs risk of condensation in cold conditions; cited from earlier work.

For `[Ar]` [argon], the “range of efficiency with the greatest effect, concentration in a mixture with oxygen” value in data set [1] (laboratory animals, volunteer testers and foreign sources) was 30-70 % by volume.

Regarding `[He]` [helium], in data set [1] (in a mixture with oxygen from 21, argon at least 25 % by volume, xenon and krypton, mixture temperature 30 to 70° C.), the “effective content providing antihypothermic and antihypoxic effects” value was “at least 40 % by volume”.

In the case of `[Kr]` [krypton], in data set [2], the critical temperature is reported as 209.35 K.
